The record followed here is US20260250312A1, “ANTIBACTERIAL COMPOUNDS ELIMINATING DORMANT BACTERIAL CELLS” (UNIVERSITÉ D'AIX-MARSEILLE, priority 2022, published 2026).

As usually defined, the IC50 is the concentration needed to halve the response being measured.

Data set [1] concerns Staphylococcus aureus (ATCC25923). In words: Microdilution MIC assay (CLSI-based), S. aureus. The format is cell-based. The conditions noted are these: 20 hours incubation at 35-37° C., MHB; for MIC: Staphylococcus aureus, ATCC25923, 20 h, read-out: Minimum inhibitory concentration S. aureus ATCC25923. A digest of the protocol: (§1)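 Broth microdilution per modified CLSI guidelines in Mueller Hinton broth, 200 μL, inoculum ca. 5×10^5 CFU/mL; compounds tested as salts, twofold dilutions from 0.2 mg/mL, in triplicate. MIC determined from OD at 620 nm after incubation.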
(In general: In broth dilution the organism is exposed to a series of concentrations in liquid medium.)

Data set [2] deals with Enterococcus faecalis (ATCC29212). In words: Microdilution MIC assay (CLSI-based), E. faecalis. The data set is classed as cell-based. The conditions noted are these: 20 hours incubation at 35-37° C., MHB; for MIC: Enterococcus faecalis, ATCC29212, 20 h, read-out: Minimum inhibitory concentration E. faecalis ATCC29212. In outline: as §1
For data set [3], the system named is Escherichia coli (ATCC28922). In words: Microdilution MIC assay (CLSI-based), E. coli. The conditions noted are these: 20 hours incubation at 35-37° C., MHB; for MIC: Escherichia coli, ATCC28922, 20 h, read-out: Minimum inhibitory concentration E. coli ATCC28922. The data set is classed as cell-based. In outline: as §1
Data set [4] concerns Pseudomonas aeruginosa (ATCC27853). The experiment in a line: Microdilution MIC assay (CLSI-based), P. aeruginosa. The conditions noted are these: 20 hours incubation at 35-37° C., MHB; for MIC: Pseudomonas aeruginosa, ATCC27853, 20 h, read-out: Minimum inhibitory concentration P. aeruginosa ATCC27853. The data set is classed as cell-based. In outline: as §1
In data set [5] the test system is CHO-K1 cells. In words: WST1 cytotoxicity test. The format is cell-based, Chinese hamster. A digest of the protocol: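 CHO-K1 cells pre-cultured 24 h, then exposed 24 h at 37 °C to increasing compound concentrations. Viability read as WST-1 formazan absorbance at 450 nm after 20 min; dose-response fitted by nonlinear regression.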
(Tetrazolium assays rely on reduction of a dye to a coloured formazan, in cell work by metabolically active cells.)

For data set [6], the system named is Escherichia coli (E. coli) persister cells. In words: Anti-persister activity test, persister cells. The data set is classed as cell-based. The conditions noted are these: for anti-persister activity (in words): E. coli persister cells, Table 8 conditions; for viability at 250 µM: read-out: Persister cell survival rate 96 h, concentration used 250 μM, 4 hours treatment; for viability at 125 µM: read-out: Persister cell survival rate 96 h, concentration used 125 μM, 4 hours treatment; for Persister cell survival rate 96 h: concentration used 250 μM, 4 hours treatment. The procedure:
(§2) Anti-persister activity test: Escherichia coli (E. coli) persister cells were generated and isolated as described by MARQUES, C. N. H. et al. (Applied and Environmental Microbiology 2014, Vol. 80, No. 22, pp. 6976-6991). E. coli persister cells were compared to E. coli non-persister cells. 1 mL persister or non-persister bacteria culture was added in a 1.5 mL microtube with each of the compounds to be tested or ciprofloxacin as a […], and incubated at 37° C. with 160 rpm shaking for 4 hours. After 4 hours treatment with the compounds, the microtubes were centrifuged at 3,500g for 5 minutes and the pellets were resuspended in 1 mL of fresh drug free RM broth (10 g/L M9 salt, 2% casamino acids, 1 mM MgCl2, 1% glycerol). Resuspended bacteria were then plated over LB agar plates and incubated at 37° C. Bacterial colonies were enumerated after 24, 48 and 96 hours to estimate the survival rate.

Data set [7] relates to E. coli non-persister cells. The experiment in a line: Anti-persister activity test, non-persister cells. The format is cell-based, Escherichia coli. The conditions noted are these: for viability at 250 µM: read-out: Non-persister cell survival rate 96 h, concentration used 250 μM, 4 hours treatment; for viability at 125 µM: read-out: Non-persister cell survival rate 96 h, concentration used 125 μM, 4 hours treatment; for activity on non-persister cells (in words): E. coli non-persister cells, Table 8 conditions; for Non-persister cell survival rate 96 h: concentration used 250 μM, 4 hours treatment. The method, then: as §2

[8] abbreviates: Cricetulus griseus, CHO-K1, 24 h, WST1, 24 hours at 37° C., read-out: IC50 CHO.
The mark [9] stands for this setting: Cricetulus griseus, CHO-K1, WST1, as printed in Table 8, read-out: Toxicity IC50 CHO.

≈ marks a conversion by molar mass, not a printed value. Where “and” joins values, the source holds several entries; their conditions need not be identical. Identical values can stand only once. Like-named read-outs stand apart in the source and are kept apart here. Marks after values point to notes of the source that are not given here.

Take `COC(=O)[C@@H](Cc1ccccc1)NC(=O)CC[C@@H](C)[C@H]1CCC2C3C(CC[C@@]21C)[C@@]1(C)CC[C@H](NCCNCCNCCN)C[C@H]1C[C@H]3O` (stereo partly drawn) [Compound S010, methyl ((4R)-4-((3S,5S,7R,10S,13R,17R)-3-((2-((2-((2-aminoethyl)amino)ethyl)amino)ethyl)amino)-7-hydroxy-10,13-dimethylhexadecahydro-1H-cyclopenta[a]phenanthren-17-yl)pentanoyl)-D-phenylalaninate]: the MIC is 12.5 µM and 8 µg/mL in data set [1]; 12.5 µM and 8 µg/mL in data set [2]; 50 µM and 32 µg/mL in data set [3]; 50 µM and 32 µg/mL in data set [4]. Moreover, the “toxicity results (in words)” value in data set [5] is recorded as “good toxicity results”. The IC50 is 114 µM and 77.4 µg/mL in data set [5] (setting [8]); 114 µM in data set [5] (setting [9]). Also, the “anti-persister activity (in words)” value in data set [6] was “very potent anti-persister activity”. In addition, the viability at 250 µM in data set [6] (Escherichia coli, 4 h) turned out to be 0.8%; in data set [7] (Escherichia coli, 4 h) it was 4.2%.
On to `COC(=O)[C@@H](NC(=O)CC[C@@H](C)[C@H]1CCC2C3C(CC[C@@]21C)[C@@]1(C)CC[C@H](NCCCNCCNCCCN)C[C@H]1C[C@H]3O)C(C)C` (stereo partly drawn) [Compound S013, methyl ((4R)-4-((3S,5S,7R,10S,13R,17R)-3-((3-((2-((3-aminopropyl)amino)ethyl)amino)propyl)amino)-7-hydroxy-10,13-dimethylhexadecahydro-1H-cyclopenta[a]phenanthren-17-yl)pentanoyl)-L-valinate], for which the MIC is 6.25 µM and 4 µg/mL in data set [1]; 12.5 µM and 8 µg/mL in data set [2]; 6.25 µM and 4 µg/mL in data set [3]; 25 µM and 16 µg/mL in data set [4]. The “toxicity results (in words)” value in data set [5] was “good toxicity results”. The IC50 in data set [5] (setting [8]) is 96.3 µM and 63.7 µg/mL; in data set [5] (setting [9]), 96.3 µM. Moreover, the “anti-persister activity (in words)” value in data set [6] is “both anti-persister and anti-bacterial activities”. Moreover, the viability at 250 µM turned out to be 0% in data set [6] (Escherichia coli, 4 h) and 0% in data set [7] (Escherichia coli, 4 h).
`COC(=O)[C@H](Cc1ccccc1)NC(=O)CC[C@@H](C)[C@H]1CCC2C3C(CC[C@@]21C)[C@@]1(C)CC[C@H](NCCCNCCCCNCCCN)C[C@H]1C[C@H]3O` (stereo partly drawn) [Compound S014, methyl ((4R)-4-((3S,5S,7R,10S,13R,17R)-3-((3-((4-((3-aminopropyl)amino)butyl)amino)propyl)amino)-7-hydroxy-10,13-dimethylhexadecahydro-1H-cyclopenta[a]phenanthren-17-yl)pentanoyl)-L-phenylalaninate]: the MIC in data set [1] was 3.12 µM and 2 µg/mL; in data set [2], 12.5 µM and 8 µg/mL; in data set [3], 6.25 µM and 4 µg/mL; in data set [4], 25 µM and 16 µg/mL. Besides, the “toxicity results (in words)” value in data set [5] is reported as “good toxicity results”. Besides, the IC50 in data set [5] (setting [8]) was 77.6 µM and 57.3 µg/mL; in data set [5] (setting [9]) it was 77.6 µM. Also, the “anti-persister activity (in words)” value in data set [6] is “both anti-persister and anti-bacterial activities”. Further, the viability at 125 µM is 0% in data set [6] (Escherichia coli, 4 h) and 0% in data set [7] (Escherichia coli, 4 h).
Take `COC(=O)[C@H](NC(=O)CC[C@@H](C)[C@H]1CCC2C3C(CC[C@@]21C)[C@@]1(C)CC[C@H](NCCCNCCCN)C[C@H]1C[C@H]3O)C(C)C` (stereo partly drawn) [Compound S017, methyl ((4R)-4-((3S,5S,7R,10S,13R,17R)-3-((3-((3-aminopropyl)amino)propyl)amino)-7-hydroxy-10,13-dimethylhexadecahydro-1H-cyclopenta[a]phenanthren-17-yl)pentanoyl)-D-valinate]: the “Minimum inhibitory concentration S. aureus ATCC25923” value in data set [1] is 12.5* μM and 8* μg/mL. In addition, the “Minimum inhibitory concentration E. faecalis ATCC29212” value in data set [2] is 25* μM and 16* μg/mL. The “Minimum inhibitory concentration E. coli ATCC28922” value in data set [3] is 12.5* μM and 8* μg/mL. The “Minimum inhibitory concentration P. aeruginosa ATCC27853” value in data set [4] was 50* μM and 32* μg/mL. Moreover, the “IC50 CHO” value in data set [5] (WST1, 24 hours at 37° C.) amounted to 33.23 µg/mL (≈ 53.7 µM). Further, the IC50 in data set [5] (WST1, 24 hours at 37° C., read-out: IC50 CHO) amounted to 53.7 µM. For the same molecule, the half-maximal inhibitory concentration (IC50) in data set [5] (WST1, Table 8, read-out: Toxicity IC50 CHO) amounted to 53.7 µM. In data set [6], the “anti-persister activity (in words)” value is reported as “not as good on persister cells” and the “Persister cell survival rate 96 h” value is given as 0.6%. Further, in data set [7], the “activity on non-persister cells (in words)” value was “good activity on non-persister cells” and the “Non-persister cell survival rate 96 h” value is 0.0%.
In the case of `COC(=O)[C@H](NC(=O)CC[C@@H](C)[C@H]1CCC2C3C(CC[C@@]21C)[C@@]1(C)CC[C@H](NCCCNCCCN)C[C@H]1C[C@H]3O)C(C)C` (stereo partly drawn) [Compound S019, methyl ((4R)-4-((3S,5S,7R,10S,13R,17R)-3-((3-((3-aminopropyl)amino)propyl)amino)-7-hydroxy-10,13-dimethylhexadecahydro-1H-cyclopenta[a]phenanthren-17-yl)pentanoyl)-D-valinate], the “Minimum inhibitory concentration S. aureus ATCC25923” value in data set [1] was 6.25* μM and 4* μg/mL. In addition, the “Minimum inhibitory concentration E. faecalis ATCC29212” value in data set [2] is 25* μM and 16* μg/mL. In data set [3], the “Minimum inhibitory concentration E. coli ATCC28922” value was 12.5* μM and 8* μg/mL. Further, in data set [4], the “Minimum inhibitory concentration P. aeruginosa ATCC27853” value is 12.5* μM and 8* μg/mL. The IC50 in data set [5] (setting [9]) worked out at 97.1 µM. For the same molecule, the “IC50 CHO” value in data set [5] (WST1, 24 hours at 37° C.) stood at 60.09 µg/mL (≈ 97.1 µM). In addition, in data set [6], the “anti-persister activity (in words)” value is on record as “very potent anti-persister activity” and the “Persister cell survival rate 96 h” value was 0.0%. Also, in data set [7], the “Non-persister cell survival rate 96 h” value is 4.0%.
Take `COC(=O)[C@H](Cc1ccc(O)cc1)NC(=O)CC[C@@H](C)[C@H]1CCC2C3C(CC[C@@]21C)[C@@]1(C)CC[C@H](NCCCNCCCCNCCCN)C[C@H]1C[C@H]3O` (stereo partly drawn) [Compound S039, methyl ((4R)-4-((3S,5S,7R,10S,13R,17R)-3-((3-((4-((3-aminopropyl)amino)butyl)amino)propyl)amino)-7-hydroxy-10,13-dimethylhexadecahydro-1H-cyclopenta[a]phenanthren-17-yl)pentanoyl)-L-tyrosinate]: the MIC is 6.25 µM and 4 µg/mL in data set [1]; 12.5 µM and 8 µg/mL in data set [2]; 6.25 µM and 4 µg/mL in data set [3]; 6.25 µM and 4 µg/mL in data set [4]. Also, the “toxicity results (in words)” value in data set [5] is “good toxicity results”. Besides, the IC50 in data set [5] (setting [8]) is 60 µM and 45.3 µg/mL; in data set [5] (setting [9]), 60 µM. Also, the “anti-persister activity (in words)” value in data set [6] is “very potent anti-persister activity”. Moreover, the viability at 62.5 µM in data set [6] (Escherichia coli, 4 h, read-out: Persister cell survival rate 96 h, concentration used 62.5 μM, 4 hours treatment) stood at 0%; in data set [7] (Escherichia coli, 4 h, read-out: Non-persister cell survival rate 96 h, concentration used 62.5 μM, 4 hours treatment), 2.7%.
As to `CC[C@H](C)[C@H](NC(=O)CC[C@@H](C)[C@H]1CC[C@H]2[C@@H]3[C@H](O)C[C@@H]4C[C@@H](NCCCNCCNCCCN)CC[C@]4(C)[C@H]3CC[C@]12C)C(=O)OC` [Compound S041, methyl (2S,3S)-2-((4R)-4-((3S,5S,7R,10S,13R,17R)-3-((3-((2-((3-aminopropyl)amino)ethyl)amino)propyl)amino)-7-hydroxy-10,13-dimethylhexadecahydro-1H-cyclopenta[a]phenanthren-17-yl)pentanamido)-3-methylpentanoate], the MIC is 12.5 µM and 8 µg/mL in data set [1]; 12.5 µM and 8 µg/mL in data set [2]; 12.5 µM and 8 µg/mL in data set [3]; 12.5 µM and 8 µg/mL in data set [4]. Besides, the 50% inhibitory concentration (IC50) in data set [5] (setting [8]) was 9.8 µM and 6.63 µg/mL; in data set [5] (setting [9]), 9.8 µM. Further, the “anti-persister activity (in words)” value in data set [6] was “not as good on persister cells”. Besides, the viability at 125 µM worked out at 0.1% in data set [6] (Escherichia coli, 4 h) and 0% in data set [7] (Escherichia coli, 4 h). Moreover, in data set [7], the “activity on non-persister cells (in words)” value is on record as “good activity on non-persister cells”.
